Assays:
Type in all cases: in vivo, mouse
[1] = test system: learning and/or memory functions of C57Bl/6j mice (LPS-induced learning and/or memory disorder model); assay: Novel object recognition test in LPS-induced learning and/or memory disorder model (Experimental Example 1); conditions: 3 g/kg body weight oral once a day for 13 days; LPS 250 μg/kg i.p. day 4 to 10; Tukey; Example 1 p<0.05
Experimental: To the control LPS group was orally administered 10 mL of distilled water per kg of mouse body weight once a day for 13 consecutive days.
The agent of Comparative Example 2 was suspended in distilled water at a concentration of 0.3 g/mL, and 10 mL (3 g/kg body weight) was orally administered per kg of mouse body weight once a day for 13 consecutive days to the group to be administered with the agent of Comparative Example 2 (LPS+Gly3). […]
During the training trial, the ratio (%) of the time of contact with object A1 or A2 with a shorter contact time to the total time of contact with the two objects (A1 and A2) placed in the experimental arena was calculated.
During the retention trial, the ratio (%) of the time of contact with object B to the total time of contact with the two objects (A1 and B, or A2 and B) placed in the experimental arena was determined. […]

[2] = test system: Sonic hedgehog (Shh) gene; assay: Hippocampal gene expression level by RNA-seq (TPM), Shh; conditions: oral once a day for 13 days (Example 1 3 g/kg, Comp. Ex. 4 2 g/kg, Comp. Ex. 5 1 g/kg); Dunnett; p<0.05 for Example 1
Experimental: (§1) At that time, as comparison samples, 2 g of glycine was used as the agent of Comparative Example 4, and 1 g of L-serine was used as the agent of Comparative Example 5, and the action on gene expression in the mouse hippocampus was similarly examined.
(§2) The agent of Comparative Example 4 was suspended in 0.5 wt % methylcellulose aqueous solution at a concentration of 0.2 g/mL, and 10 mL (2 g/kg body weight) was orally administered per kg of mouse body weight once a day for 13 consecutive days to the group to be administered with the agent of Comparative Example 4 (LPS+Gly2).
as §2, with “5” for “4”, “0.1” for “0.2”, “(1” for “(2”, “5 (LPS+L-Ser1).” for “4 (LPS+Gly2).”
(§3) Hippocampal tissue was collected from each group of mice that had been administered with each suspension or vehicle shown in Table 5 for 13 consecutive days, total RNA was extracted from each individual separately, and RNA sequencing (RNA-seq) was performed. […] Samples from individuals suspected of being contaminated at the time of tissue collection were excluded from analysis.

[3] = test system: Thyroid stimulating hormone receptor (TShr) gene; assay: Hippocampal gene expression level by RNA-seq (TPM), Tshr; conditions: oral once a day for 13 days (Example 1 3 g/kg, Comp. Ex. 4 2 g/kg, Comp. Ex. 5 1 g/kg); Dunnett; p<0.05 for Example 1
Experimental: as §1, §2
as §2, with “5” for “4”, “0.1” for “0.2”, “(1” for “(2”, “5 (LPS+L-Ser1).” for “4 (LPS+Gly2).”
as §3

[4] = test system: Family with sequence similarity 107 member a (Fam107a) gene; assay: Hippocampal gene expression level by RNA-seq (TPM), Fam107a; conditions: oral once a day for 13 days (Example 1 3 g/kg, Comp. Ex. 4 2 g/kg, Comp. Ex. 5 1 g/kg); Dunnett; p<0.05 for Example 1
Experimental: as §1, §2
as §2, with “5” for “4”, “0.1” for “0.2”, “(1” for “(2”, “5 (LPS+L-Ser1).” for “4 (LPS+Gly2).”
as §3

[5] = test system: D-site of albumin promoter (albumin D-box) binding protein (Dbp) gene; assay: Hippocampal gene expression level by RNA-seq (TPM), Dbp; conditions: oral once a day for 13 days (Example 1 3 g/kg, Comp. Ex. 4 2 g/kg, Comp. Ex. 5 1 g/kg); Dunnett; p<0.05 for Example 1
Experimental: as §1, §2
as §2, with “5” for “4”, “0.1” for “0.2”, “(1” for “(2”, “5 (LPS+L-Ser1).” for “4 (LPS+Gly2).”
as §3

[6] = test system: Galanin and GMAP prepropeptide (Gal) gene; assay: Hippocampal gene expression level by RNA-seq (TPM), Gal; conditions: oral once a day for 13 days (Example 1 3 g/kg, Comp. Ex. 4 2 g/kg, Comp. Ex. 5 1 g/kg); Dunnett; p<0.05 for Example 1
Experimental: as §1, §2
as §2, with “5” for “4”, “0.1” for “0.2”, “(1” for “(2”, “5 (LPS+L-Ser1).” for “4 (LPS+Gly2).”
as §3

NCC(=O)O [Comparative Example 2, glycine]
RI value (%) during the retention trial, compared with the group orally administered with distilled water (LPS) [1]: significant difference was not observed

NCC(=O)O [Comparative Example 4, glycine]
expression of the Shh gene in hippocampus vs solvent alone (LPS) [2]: significant changes in the expression levels of genes were not observed
expression of the Tshr gene in hippocampus vs solvent alone (LPS) [3]: significant changes in the expression levels of genes were not observed
expression of the Fam107a gene in hippocampus vs solvent alone (LPS) [4]: significant changes in the expression levels of genes were not observed
expression of the Dbp gene in hippocampus vs solvent alone (LPS) [5]: significant changes in the expression levels of genes were not observed
expression of the Gal gene in hippocampus vs solvent alone (LPS) [6]: significant changes in the expression levels of genes were not observed

N[C@@H](CO)C(=O)O [Comparative Example 5, L-serine]
expression of the Shh gene in hippocampus vs solvent alone (LPS) [2]: significant changes in the expression levels of genes were not observed
expression of the Tshr gene in hippocampus vs solvent alone (LPS) [3]: significant changes in the expression levels of genes were not observed
expression of the Fam107a gene in hippocampus vs solvent alone (LPS) [4]: significant changes in the expression levels of genes were not observed
expression of the Dbp gene in hippocampus vs solvent alone (LPS) [5]: significant changes in the expression levels of genes were not observed
expression of the Gal gene in hippocampus vs solvent alone (LPS) [6]: significant changes in the expression levels of genes were not observed
